Experimental data reported in the CheMixHub viscosity set.
Where “and” joins values, the source holds several entries; their conditions need not be identical. Identical values can stand only once.

Assay: xn = mol fraction of the nth substance listed

CCCCOCC(C)O (centres undefined) + CCO
viscosity [mPa·s], 101.33 kPa
Conditions	298.15 K	308.15 K	318.15 K
x1 = 0.05	1.229	1.013	0.846
x1 = 0.1	1.344	1.103	0.915
x1 = 0.15	1.462	1.193	0.982
x1 = 0.2	1.585	1.279	1.046
x1 = 0.25	1.705	1.363	1.108
x1 = 0.3	1.813	1.442	1.166
x1 = 0.35	1.918	1.516	1.22
x1 = 0.4	2.022	1.589	1.273
x1 = 0.45	2.12	1.656	1.321
x1 = 0.5	2.211	1.724	1.365
x1 = 0.55	2.305	1.779	1.409
x1 = 0.6	2.384	1.841	1.445
x1 = 0.65	2.469	1.891	1.49
x1 = 0.7	2.536	1.935	1.517
x1 = 0.7499	2.608	1.983	1.55
x1 = 0.7998	2.674	2.035	1.58
x1 = 0.85	2.737	2.067	1.609
x1 = 0.8998	2.788	2.099	1.633
x1 = 0.95	2.841	2.135	1.647

O=C([O-])[O-].[Na+].[Na+] + O
Conditions	viscosity
293.15 K, 101.33 kPa, x1 = 0.0032	1.085 mPa·s
293.15 K, 101.33 kPa, x1 = 0.0051	1.152 mPa·s
293.15 K, 101.33 kPa, x1 = 0.008	1.264 mPa·s
293.15 K, 101.33 kPa, x1 = 0.0115	1.414 mPa·s
293.15 K, 101.33 kPa, x1 = 0.0152	1.593 mPa·s
293.15 K, 101.33 kPa, x1 = 0.0197	1.844 mPa·s
293.15 K, 101.33 kPa, x1 = 0.0224	2.015 mPa·s
293.15 K, 101.33 kPa, x1 = 0.0255	2.232 mPa·s
293.15 K, 101.33 kPa, x1 = 0.0288	2.49 mPa·s
293.65 K, 100 kPa, x1 = 0.00502	1.145 mPa·s
298.15 K, 101 kPa, x1 = 0.0002	0.95 mPa·s
298.15 K, 101 kPa, x1 = 0.001	0.95 mPa·s
298.15 K, 101 kPa, x1 = 0.0027	0.99 mPa·s
298.15 K, 101 kPa, x1 = 0.00397	1.01 mPa·s
298.15 K, 101.33 kPa, x1 = 0.0032	0.96 mPa·s
298.15 K, 101.33 kPa, x1 = 0.0051	1.018 mPa·s
298.15 K, 101.33 kPa, x1 = 0.008	1.113 mPa·s
298.15 K, 101.33 kPa, x1 = 0.0115	1.242 mPa·s
298.15 K, 101.33 kPa, x1 = 0.0152	1.395 mPa·s
298.15 K, 101.33 kPa, x1 = 0.0197	1.609 mPa·s
298.15 K, 101.33 kPa, x1 = 0.0224	1.753 mPa·s
298.15 K, 101.33 kPa, x1 = 0.0255	1.937 mPa·s
298.15 K, 101.33 kPa, x1 = 0.0288	2.155 mPa·s
301.15 K, 100 kPa, x1 = 0.0101	1.115 mPa·s and 1.117 mPa·s
303.15 K, 101 kPa, x1 = 0.002	0.836 mPa·s
303.15 K, 101 kPa, x1 = 0.005	0.923 mPa·s
303.15 K, 101 kPa, x1 = 0.009	1.026 mPa·s
303.15 K, 101.33 kPa, x1 = 0.0032	0.864 mPa·s
303.15 K, 101.33 kPa, x1 = 0.0051	0.915 mPa·s
303.15 K, 101.33 kPa, x1 = 0.008	0.998 mPa·s
303.15 K, 101.33 kPa, x1 = 0.0115	1.11 mPa·s
303.15 K, 101.33 kPa, x1 = 0.0152	1.244 mPa·s
303.15 K, 101.33 kPa, x1 = 0.0197	1.429 mPa·s
303.15 K, 101.33 kPa, x1 = 0.0224	1.554 mPa·s
303.15 K, 101.33 kPa, x1 = 0.0255	1.712 mPa·s
303.15 K, 101.33 kPa, x1 = 0.0288	1.9 mPa·s
306.65 K, 100 kPa, x1 = 0.0101	0.987 mPa·s
308.15 K, 101 kPa, x1 = 0.002	0.763 mPa·s
308.15 K, 101 kPa, x1 = 0.005	0.842 mPa·s
308.15 K, 101 kPa, x1 = 0.009	0.931 mPa·s
308.65 K, 100 kPa, x1 = 0.00502	0.825 mPa·s
311.15 K, 100 kPa, x1 = 0.0168	1.1 mPa·s
311.15 K, 100 kPa, x1 = 0.02299	1.331 mPa·s and 1.332 mPa·s
313.15 K, 101 kPa, x1 = 0.0002	0.7 mPa·s
313.15 K, 101 kPa, x1 = 0.001	0.7 mPa·s
313.15 K, 101 kPa, x1 = 0.002	0.694 mPa·s
313.15 K, 101 kPa, x1 = 0.0027	0.72 mPa·s
313.15 K, 101 kPa, x1 = 0.00397	0.74 mPa·s
313.15 K, 101 kPa, x1 = 0.005	0.763 mPa·s
313.15 K, 101 kPa, x1 = 0.009	0.846 mPa·s

COC(C)=O + Cc1ccccc1C
viscosity [mPa·s], 101 kPa
Conditions	298.15 K	308.15 K
x1 = 0.0434	0.731	0.636
x1 = 0.1489	0.668	0.587
x1 = 0.2499	0.616	0.546
x1 = 0.3517	0.57	0.508
x1 = 0.444	0.533	0.478
x1 = 0.4974	0.513	0.462
x1 = 0.5506	0.495	0.447
x1 = 0.6497	0.465	0.422
x1 = 0.7494	0.438	0.399
x1 = 0.851	0.414	0.378
x1 = 0.9458	0.394	0.36

C[C@H](N)C(=O)[O-].[Na+] + O
viscosity [mPa·s], 101 kPa
Conditions	x1 = 0.004484	x1 = 0.008927	x1 = 0.01333	x1 = 0.0177	x1 = 0.02202	x1 = 0.02631	x1 = 0.03478	x1 = 0.0431	x1 = 0.05127
293.15 K	1.118	1.239	1.371	1.526	1.683	1.856	2.272	2.747	3.244
303.15 K	0.886	0.979	1.077	1.192	1.305	1.436	1.726	2.062	2.399
313.15 K	0.722	–	0.871	0.96	1.046	1.144	1.372	1.605	1.851
323.15 K	0.602	0.662	0.722	0.791	0.859	0.935	1.1	1.286	1.477
